# Measurements published in patent US4898863A, “Heterocyclic carboxamides” (ICI Americas Inc., priority 1986, dated 1990).
# Experiments:
# [1] = overt toxicity / untoward side-effects in dosed laboratory animals; format: in vivo, guinea-pig
# leukotriene LTD4 = assay: in vivo guinea-pig aerosol test (leukotriene LTD4 challenge, time of onset of breathing changes); conditions: Cavia porcellus, oral, read-out: effective dose following oral administration
structure (smiles),measurement,setting,value
"COc1cc(C(=O)NS(=O)(=O)c2ccccc2C)ccc1Cn1cc(CCC(=O)N2CCCC2)c2ccc(C(=O)NCC3CCCC3)cc21 [Example 8, N-[4-[6-(N-Cyclopentylmethylcarbamoyl)-3-[2-(pyrrolidinocarbonyl)ethyl]indol-1-ylmethyl]-3-methoxybenzoyl]-2-methylbenzesulphonamide]",oral dose showing no sign of overt toxicity,[1],30 mmol/kg
same,minimal effective dose,leukotriene LTD4,2000 µmol/kg
